The test concerns MCF10A cells. Description: Transwell migration assay. In kind it is cell-based, human. Conditions: TGFβ 20 ng/mL. As for the experimental part: Transwell migration assays were performed according to Irie et al., 2005 J. Cell Biol. 171: 1023. MCF10A cells were transfected with a negative control siRNA designed to have no sequence similarity to a human transcript sequence (#AM4611) or siRNAs for Akt1 (#S660) or Akt2 (#S1216), or siRNAs for both Akt 1 and Akt2 (50 nM). Twenty four hours after transfection, cells were cultured overnight in assay medium (MCF10A growth medium containing 2% serum±TGFβ (20 ng/mL)). Sixteen hours later, cells were trypsinized and 10^5 cells were added to the top chambers of
24-well transwell plates (8 μm pore size; BD Bioscience, Bedford, Mass.). The bottom chambers were filled with assay medium. […] The significance of variability between a given group and its corresponding control was determined with the unpaired t test.
The mRNAs encoding Akt1 and Akt2, which are present in similar abundance in untransfected MCF10A cells (FIG. 10), were respectively knocked down by transfection with small interfering RNA (siRNA) directed against Akt1 or Akt2. […] After transfection with these siRNAs, the cells were analyzed for the abundance of Zeb1, Zeb2, and E-cadherin before and 24 hours after treatment with TGFβ. […] Parallel cultures of similarly treated cells were therefore used to measured cell migration by means of a Transwell cell migration assay.

As for TGFβ, the “enhancement of cell migration” value (Akt1 siRNA-transfected MCF10A cells) stood at 22 times and the “enhancement of cell migration” value (untransfected MCF10A cells) came to 7.7 times.

The values are drawn from patent publication US8617818B2, “Compositions and methods for diagnosis and prognosis of cancer and progression, and for screening anti-cancer agents” (Tufts Medical Center, priority 2009, dated 2013).
